Laboratory results as given in patent US12240834B2, “Polymorphs of [2-(1H-indol-3-yl)-1H-imidazol-4-yl] (3,4,5-trimethoxyphenyl)methanone and its salts” (VERU INC., priority 2022, dated 2025).

Columns and labels:
[1] = Polymorph screen summary of forms (stability designation); type: physicochemical
Description: Polymorphism is the ability of a chemical entity to exist in different three-dimensional arrangements in the solid state. Different polymorphic forms of a compound can have different physical properties. […] The screen was designed to prepare as many novel crystalline forms as possible and characterize these polymorphs for use in a pharmaceutical product. […] Samples generated during the study were characterized using differential scanning calorimetry (DSC), polarized light microscopy, thermogravimetric analysis (TGA), X-ray powder diffraction (XRD), Fourier transform infrared spectroscopy (FT-IR), and dynamic vapor sorption (DVS). […] These were essentially the same except for minor changes in the diffraction pattern and DSC thermograms. […] The HCl salt was characterized polymorphic as multiple polymorphic forms were made and characterized as described below. […] Based on diffraction behavior, each polymorphic form was studied to determine differentiation. The characterization of each hydrochloride polymorph form began with an X-ray powder diffraction (XRD) data comparison of each form with the other forms. This was generally followed by DSC and TGA analysis.

[2] = Hygroscopicity by dynamic vapor sorption (DVS); type: physicochemical; conditions: for DVS behaviour: moisture adsorption-desorption
Experimental: Hygroscopicity—Dynamic Vapor Sorption (DVS)
DVS is a gravimetric technique that measures how quickly and how much of a solvent (water) is absorbed by a sample. The relative humidity or vapor concentration surrounding the sample is varied while the change in mass of the sample is measured. […] The mass values at each relative humidity step are used to generate an isotherm. Isotherms are divided in two components: sorption for increasing humidity steps and desorption for decreasing humidity steps. A plot of kinetic data is also used to show the change in mass and humidity as a function of time.
The samples were analyzed using a TA Q5000 automated dynamic vapor sorption analyzer. The samples were dried at higher temperature than ambient over a period of time and then cooled to 25° C. with a dry nitrogen purge over them until they no longer lost mass at 0% RH (relative humidity). The samples were then subjected to 0 to 90% RH, back to 10% RH at 25° C. in 10% RH steps.

[3] = Non-competitive slurry experiments (solid form stability, XRD readout); type: physicochemical; conditions: ambient temperature
Experimental: In addition to the solvent recrystallization experiments (Example 3), non-competitive slurry (Example 4) and competitive slurry (Example 5) experiments were performed to make new solid-state forms. Non-competitive slurry experiments were performed to search for new solid-state forms. These experiments relied on solubility differences of different polymorphic forms (if the compound is polymorphic).
The solution is saturated with respect to the polymorphic form dissolved. […] In addition, noncompetitive slurry experiments are often useful in identifying solvents that form solvates with the compound.
The slurry experiments were performed by exposing excess starting material, which was in all cases in this experiment Form B, to neat single and binary solvent systems and agitating the resulting suspensions for several days at ambient temperature. The solids were vacuum filtered and analyzed by XRD to determine the resulting form. To avoid possible desolvation or physical change after isolation, the samples were not further dried before X-ray analysis.

[4] = Storage of solid forms at ambient conditions (form conversion)

## COc1cc(C(=O)c2c[nH]c(-c3c[nH]c4ccccc34)n2)cc(OC)c1OC.Cl [Form A]
[1]
  Description (stability / hydrate designation of the form): Metastable
[2]; at 90% RH
  total weight gain (DVS): about 0.4%
[2]
  DVS behaviour: very hydrophobic and does not appear to be prone to hydrate formation

## COc1cc(C(=O)c2c[nH]c(-c3c[nH]c4ccccc34)n2)cc(OC)c1OC.Cl [Form B]
[1]
  Description (stability / hydrate designation of the form): Metastable
[3]; 1-Propanol/EtOAc slurry, 11 Days
  Final Form: Form E1
[3]; 2-Propanol/THF slurry, 11 Days
  Final Form: Form E1
[3]; ACN/Acetone slurry, 11 Days
  Final Form: Form E1
[3]; Acetone slurry, 14 Days
  Final Form: Form D
[3]; Acetonitrile slurry, 14 Days
  Final Form: Form D
[3]; Ethanol slurry, 14 Days
  Final Form: Solvate
[3]; Ethanol/Toluene slurry, 11 Days
  Final Form: Form E1
[3]; Ethanol/acetonitrile slurry, 11 Days
  Final Form: Form E1
[3]; Ethyl acetate slurry, 14 Days
  Final Form: Form B
[3]; Heptane slurry, 14 Days
  Final Form: Form B
[3]; MeOH/Acetone slurry, 11 Days
  Final Form: Low crystallinity
[3]; Methanol slurry, 14 Days
  Final Form: Solvate
[3]; Methanol/DCM slurry, 11 Days
  Final Form: Solvate
[3]; Methanol/Water slurry, 11 Days
  Final Form: Low crystallinity
[3]; Methylene chloride slurry, 14 Days
  Final Form: Form B
[3]; TFE/DCM slurry, 11 Days
  Final Form: Form B
[3]; TFE/EtOAc slurry, 11 Days
  Final Form: Low order
[3]; THF slurry, 14 Days
  Final Form: Form B
[3]; Toluene slurry, 14 Days
  Final Form: Form B
[3]; Water slurry, 14 Days
  Final Form: Low Crystallinity

## COc1cc(C(=O)c2c[nH]c(-c3c[nH]c4ccccc34)n2)cc(OC)c1OC.Cl [Form CH]
[1]
  Description (stability / hydrate designation of the form): Monohydrate
[2]; at high humidity, returned to starting mass upon completion of the scan
  water uptake (DVS): up to 0.95 wt %
[2]
  DVS behaviour: very low uptake of water adsorption

## COc1cc(C(=O)c2c[nH]c(-c3c[nH]c4ccccc34)n2)cc(OC)c1OC.Cl [Form D]
[1]
  Description (stability / hydrate designation of the form): Metastable

## COc1cc(C(=O)c2c[nH]c(-c3c[nH]c4ccccc34)n2)cc(OC)c1OC.Cl [Form FH]
[1]
  Description (stability / hydrate designation of the form): Hydrate

## COc1cc(C(=O)c2c[nH]c(-c3c[nH]c4ccccc34)n2)cc(OC)c1OC.Cl [Form GH]
[1]
  Description (stability / hydrate designation of the form): Hydrate

## COc1cc(C(=O)c2c[nH]c(-c3c[nH]c4ccccc34)n2)cc(OC)c1OC.Cl [Form H]
[1]
  Description (stability / hydrate designation of the form): Stable Form
[4]; held at ambient conditions
  form conversion on holding at ambient conditions: not observed to convert to any other polymorphic form

## COc1cc(C(=O)c2c[nH]c(-c3c[nH]c4ccccc34)n2)cc(OC)c1OC.Cl [Form I]
[1]
  Description (stability / hydrate designation of the form): Metastable
[4]; after a month of storage at ambient conditions
  form conversion on storage: converted to a mixture of Form CH and Form H

## COc1cc(C(=O)c2c[nH]c(-c3c[nH]c4ccccc34)n2)cc(OC)c1OC [free base (Form I)]
[3]; slurried in acetone, THF or toluene, several days
  form resulting from slurry (XRD): Form II
